≈ marks a conversion by molar mass, not a printed value.
How the values were obtained:
[1] = Cytotoxicity against Hepatitis C virus genotype 1b Con1 infected human HuH7 cells after 48 hrs by MTT assay; assay type: cell-based, Huh-7; settings: HuH7 cells infected with Hepatitis C virus genotype 1b Con1
[2] = Inhibition of human recombinant Phosphatidylinositol 4-kinase type 3-beta expressed in Sf9 cells assessed as reduction in […] by pyruvate kinase and lactate dehydrogenase coupled assay
Hepatitis C virus [3] = experiment: Antiviral activity against Hepatitis C virus genotype 1b Con1 infected in HuH7 cells by cell based replicon assay; assay type: functional, Hepacivirus hominis; settings: genotype 1b Con1, Huh-7
Hepatitis C virus [4] = experiment: Antiviral activity against Hepatitis C virus subtype 1a infected in HuH7 cells by cell based replicon assay; assay type: functional, Hepacivirus hominis; settings: Huh-7
[5] = Inhibition of human recombinant Phosphatidylinositol 4-kinase type 3-alpha expressed in Sf9 cells assessed as reduction in […] by pyruvate kinase and lactate dehydrogenase coupled assay
Hepatitis C virus [6] = experiment: Antiviral activity against Hepatitis C virus subtype 2a JFH-1 infected in HuH7 cells by cell based replicon assay; assay type: functional, Hepacivirus hominis; settings: genotype 2a JFH-1, Huh-7
[7] = Inhibition of PI3K (unknown origin); parameters: species or system Homo sapiens
[8] = Aqueous solubility at room temperature after 24 hrs by HPLC method; assay type: physicochemical; settings: aqueous medium

| Compound | CC50 at 48 h [1] | IC50 [2] | EC50 (Hepatitis C virus [3]) | EC50 (Hepatitis C virus [4]) | IC50 [5] | EC50 (Hepatitis C virus [6]) | IC50 [7] | solubility at 24 h [8] |
| --- | --- | --- | --- | --- | --- | --- | --- | --- |
| COc1ccc(-c2oc(C3CC3)nc2C)cc1 | > 31000 nM | > 2500 nM | > 30000 nM |  |  |  |  |  |
| Cc1cc(-c2cnc(C3CC3)o2)cc(S(=O)(=O)N[C@H]2CC[C@H](O)CC2)c1C | > 31000 nM | > 2500 nM | 6730 nM | 2100 nM |  |  |  |  |
| Cc1ccc(-c2cnc(C3CC3)o2)cc1S(=O)(=O)Nc1ccccc1Cl | > 31000 nM | 135 nM | 1020 nM | 1580 nM | > 10000 nM | 1820 nM | 2400 nM | < 2 µM |
| Cc1ccc(-c2cnc(C3CC3)o2)cc1S(=O)(=O)N[C@H]1CC[C@H](O)CC1 | > 31000 nM | 49 nM | 99 nM | 166 nM |  |  | > 9100 nM | 220 µM (≈ 82.8 µg/mL) |
| COc1ccc(-c2ocnc2C)cc1S(=O)(=O)N[C@H]1CC[C@H](O)CC1 | > 31000 nM | 1610 nM | > 10000 nM |  |  |  |  |  |
| COc1ccc(-c2oc(C3CC3)nc2C)cc1S(=O)(=O)CC1CCC(O)CC1 (centres undefined) | > 31000 nM | 79 nM | 67 nM |  |  |  |  |  |
| COc1ccc(-c2oc(-c3ccncc3)nc2C)cc1S(=O)(=O)N[C@H]1CC[C@H](O)CC1 | > 31000 nM | 191 nM | 410 nM |  |  |  |  |  |
| COc1ccc(-c2oc(Cc3ccccc3)nc2C)cc1S(=O)(=O)N[C@H]1CC[C@H](O)CC1 | > 31000 nM | 4 nM | 41 nM | 53 nM |  | 383 nM |  |  |
| COc1ccc(-c2oc(C3CC3)nc2C)cc1S(N)(=O)=O | > 31000 nM | 64 nM | 67 nM |  |  |  |  |  |
| COc1ccc(-c2oc(C3(C)CC3)nc2C)cc1S(=O)(=O)N[C@H]1CC[C@H](O)CC1 | > 31000 nM | 28 nM | 41 nM | 86 nM |  | 147 nM |  |  |
| COc1ccc(-c2oc(C3CC3)nc2C)cc1S(=O)(=O)N[C@H]1CC[C@H](O)CC1 | > 31000 nM | 19 nM | 34 nM | 66 nM | > 10000 nM | 324 nM | 8200 nM |  |
| Cc1ccc(-c2oc(C3CC3)nc2C)cc1S(=O)(=O)N[C@H]1CC[C@H](O)CC1 | > 31000 nM | 18 nM | 46 nM | 59 nM | > 10000 nM | 375 nM | 6290 nM |  |
| COc1ccc(-c2oc(C3CCC(CO)CC3)nc2C)cc1S(=O)(=O)N[C@H]1CC[C@H](O)CC1 (some centres undefined) | > 31000 nM | 9 nM | 32 nM |  |  |  |  |  |
| COc1ccc(-c2oc(C3CCOCC3)nc2C)cc1S(=O)(=O)N[C@H]1CC[C@H](O)CC1 | > 31000 nM | 36 nM | 402 nM |  |  |  |  |  |
| COc1ccc(-c2oc(C3CC3)nc2C)cc1S(=O)(=O)NCC(C)(C)O | > 31000 nM | 33 nM | 114 nM |  |  |  |  |  |
| COc1ccc(-c2oc(C3CC3)nc2C)cc1S(C)(=O)=O | > 31000 nM | 76 nM | 120 nM |  |  |  |  |  |
| COc1ccc(-c2cc(C3CC3)nn2C)cc1S(=O)(=O)N[C@H]1CC[C@H](O)CC1 | > 31000 nM | 54 nM | 356 nM |  |  |  |  |  |
| COc1ccc(-c2oc(C3CC3)nc2C)cc1C(=O)N[C@H]1CC[C@H](O)CC1 | > 31000 nM | 9730 nM | 3560 nM |  |  |  |  |  |
| COc1ccc(-c2oc(-c3ccccc3)nc2C)cc1S(=O)(=O)N[C@H]1CC[C@H](O)CC1 | > 31000 nM | 37 nM | 193 nM |  |  |  |  |  |
| COc1ccc(-c2oc(C)nc2C)cc1S(=O)(=O)N[C@H]1CC[C@H](O)CC1 | > 31000 nM | 414 nM | 3210 nM |  |  |  |  |  |
| COc1ccc(-c2cnc(C3CC3)o2)cc1S(=O)(=O)N[C@H]1CC[C@H](O)CC1 | > 31000 nM | 37 nM | 193 nM |  |  |  |  |  |
| COc1ccc(-c2oc(C3CC3)nc2C)cc1S(=O)(=O)Nc1cccc(C#N)c1 | > 31000 nM | 11 nM | < 30 nM |  |  |  |  |  |
| COc1ccc(-c2oc(C3CCCCC3)nc2C)cc1S(=O)(=O)N[C@H]1CC[C@H](O)CC1 | > 31000 nM | 19 nM | 108 nM |  |  |  |  |  |
| COc1ccc(-c2[nH]c(C3CC3)nc2C)cc1S(=O)(=O)N[C@H]1CC[C@H](O)CC1 | > 31000 nM | 1040 nM | 9950 nM |  |  |  |  |  |
| COc1ccc(-c2oc(C3CC3)nc2C)cc1S(=O)(=O)NCCO | > 31000 nM | 27 nM | 43 nM |  |  |  |  |  |
| COc1ccc(-c2oc(C3CCCC3)nc2C)cc1S(=O)(=O)N[C@H]1CC[C@H](O)CC1 | > 31000 nM | 9 nM | 30 nM |  |  |  |  |  |

Reference: ChEMBL document CHEMBL3351967, “2-Alkyloxazoles as potent and selective PI4KIIIβ inhibitors demonstrating inhibition of HCV replication” (Bioorg Med Chem Lett, 2014)
